Test results taken from PMC6792352, “Limited Chemical Structural Diversity Found to Modulate Thyroid Hormone Receptor in the Tox21 Chemical Library” (Environmental Health Perspectives, 2019).
Structures can show the parent of a compound that is named as a salt.

Assay: in vitro
Conditions: rat, gh3-tre-luc cells

Structure (SMILES)	CC50 at 24 h (AC50 (uM) modified / 1000) [µM]	also measured
CO[C@H]1/C=C/O[C@@]2(C)Oc3c(C)c(O)c4c(O)c(c(/C=N/N5CCN(C6CCCC6)CC5)c(O)c4c3C2=O)NC(=O)/C(C)=C\C=C\[C@H](C)[C@H](O)[C@@H](C)[C@@H](O)[C@@H](C)[C@H](OC(C)=O)[C@@H]1C [Rifapentine]	22.8	–
CC(C)OC(=O)C(C(=O)OC(C)C)=C1SC=CS1 [Malotilate]	> 50	–
O=NN1CCNCC1 [N-Nitrosopiperazine]	> 100	–
CCCCC(CC)COP(=O)(OCC(CC)CCCC)OCC(CC)CCCC (stereo not shown) [Tris(2-ethylhexyl) phosphate]	> 90	–
CC(C)Nc1ccc(NC(C)C)c2c1C(=O)c1ccccc1C2=O [1,4-Bis(N-isopropylamino)anthraquinone]	> 50	–
C=C(C)C(=O)O [Methacrylic acid]	> 90	–
O=C(N[C@H]1CN2CCC1CC2)c1ccc2c(c1)OCCO2 [PHA-00568487]	> 90	–
O=C1OC(=O)c2cc(Oc3ccc4c(c3)C(=O)OC4=O)ccc21 [5,5'-Oxybis(2-benzofuran-1,3-dione)]	> 90	–
CN(C)C [Trimethylamine hydrochloride]	> 90	–
O=C(NC(=O)c1c(F)cccc1F)Nc1cc(Cl)c(F)c(Cl)c1F [Teflubenzuron]	> 80	–
OC[C@H]1OC(O)[C@H](O)[C@@H](O)[C@@H]1O (stereo partly drawn) [D-Glucose]	> 90	–
CC1(C)S[C@@H]2[C@H](NC(=O)C(C(=O)Oc3ccc4c(c3)CCC4)c3ccccc3)C(=O)N2[C@H]1C(=O)O (stereo partly shown) [Carbenicillin indanyl]	> 50	–
Clc1ccc(C(Cl)(Cl)Cl)c(Cl)c1 [2,4-Dichloro-1-(trichloromethyl)benzene]	> 90	–
CCCCOC(=O)CCCCCCCCC(=O)OCCCC [Dibutyl decanedioate]	> 90	–
O=[N+]([O-])c1ccc2c3c(cccc13)CC2 [5-Nitroacenaphthene]	> 90	–
CC1CCN(CCCC(=O)c2ccc(F)cc2)CC1 [Methylperone]	> 50	–
NC[C@H](O)c1ccc(O)c(O)c1 [Norepinephrine]	57.7	–
CCCCOC(=O)C(C)OC(=O)CCC (stereo not shown) [1-Butoxy-1-oxopropan-2-yl butanoate]	> 90	–
Cc1ccc([N+](=O)[O-])c(C)c1 [1,3-Dimethyl-4-nitrobenzene]	> 90	–
CCOc1ccc2c3c1O[C@H]1[C@@H](O)C=C[C@H]4[C@@H](C2)N(C)CC[C@@]341 [Ethylmorphine]	–	CC50 at 24 h (AC50 (uM) modified / 1000, Tox21_110001=Tox21_112610, viability, 1 nM T3 present, 24 h): > 50 µM
CCCCCCCCCCCC#N [Dodecanenitrile]	–	CC50 at 24 h (AC50 (uM) modified / 1000, Tox21_110001=Tox21_201304, viability, 1 nM T3 present, 24 h): > 90 µM
Cc1cccc(C)c1N=C1NCCCS1 [Xylazine]	–	CC50 at 24 h (AC50 (uM) modified / 1000, Tox21_110001=Tox21_110303, viability, 1 nM T3 present, 24 h): > 50 µM
COc1ccc(/C=C/C(=O)c2ccc(OC)cc2OC)cc1 [Metochalcone]	46.1	–
CC(=O)C(=O)CC(C)C [5-Methyl-2,3-hexanedione]	> 90	–
CN1[C@@H]2CC[C@H]1C[C@@H](OC(=O)c1cc(Cl)cc(Cl)c1)C2 [MDL 72222]	35.2	–

Structure (SMILES)	CC50 at 24 h (AC50 (uM) modified / 1000) [µM]	also measured
CCCCCCCCCCCCCCCCSCC(COC)COP(=O)([O-])OCC[N+](C)(C)C (stereo not shown) [Ilmofosine]	19.3	–
O=C(O)CCCCCC(=O)O [Heptanedioic acid]	> 90	–
CC(=O)N[C@@H](CCC(N)=O)C(=O)O [Nalpha-Acetyl-L-glutamine]	> 50	–
Cc1cc(Nc2ccccc2C(=O)O)ccc1Cl [2-[(4-Chloro-3-methylphenyl)amino]benzoic acid]	> 50	–
C=CCOC(=O)CC(C)C [Allyl isovalerate]	> 90	–
CC(C)(C)c1ccccc1 [tert-Butylbenzene]	> 90	–
Oc1c(Cl)c(Cl)cc(Cl)c1Cl [2,3,5,6-Tetrachlorophenol]	–	CC50 at 24 h (AC50 (uM) modified / 1000, Tox21_110001=Tox21_200910, viability, 1 nM T3 present, 24 h): 65.8 µM
NCC[C@H](O)C(=O)N[C@@H]1C[C@H](N)[C@@H](O[C@H]2O[C@H](CN)[C@@H](O)[C@H](O)[C@H]2N)[C@H](O[C@@H]2O[C@H](CO)C(O)[C@H]2O)[C@H]1O (stereo partly shown) [Butirosin disulfate]	> 20	–
Cc1ccc(S(=O)(=O)NC(=O)NC2CCCCCCC2)cc1 [Glyoctamide]	> 50	–
C/C(=C\C(=O)OCCCCCCCCC(=O)O)C[C@@H]1OC[C@H](C[C@@H]2O[C@H]2[C@@H](C)[C@H](C)O)[C@@H](O)[C@H]1O [Mupirocin]	> 50	–
CCN(CCCc1ccccc1)CCCc1ccccc1 [Alverine citrate]	> 20	–
Cc1nccn1-c1ccc(Sc2cccc(C3(C(N)=O)CCOCC3)c2)cc1 [CJ-013610]	42.6	–
CCCCCCCCCCCCCCCCI [1-iodohexadecane]	> 20	–
O=C(O)c1cc(Cl)cc([N+](=O)[O-])c1Cl [2,5-Dichloro-3-nitrobenzoic acid]	> 90	–
CC(C)(C)c1ccccc1OP(=O)(Oc1ccccc1)Oc1ccccc1 [tert-Butylphenyl diphenyl phosphate]	–	CC50 at 24 h (AC50 (uM) modified / 1000, Tox21_110001=Tox21_202980, viability, 1 nM T3 present, 24 h): > 90 µM
CNC(=O)OCc1cccc(COC(=O)NC)n1 [Pyricarbate]	> 50	–
Cc1ccc(Cl)cc1Cl [2,4-Dichlorotoluene]	> 90	–
O=C(O)c1cccc(C(=O)O)c1C(=O)O [1,2,3-Benzenetricarboxylic acid]	> 90	–
CC(O)COc1ccccc1 (stereo not shown) [1-Phenoxy-2-propanol]	> 90	–
CCCC1CCCCN1 (racemic) [dl-Coniine]	–	CC50 at 24 h (AC50 (uM) modified / 1000, Tox21_110001=Tox21_112688, viability, 1 nM T3 present, 24 h): > 50 µM
C1CCC(NC2CCCCC2)CC1 [Dicyclohexylamine]	–	CC50 at 24 h (AC50 (uM) modified / 1000, Tox21_110001=Tox21_111044, viability, 1 nM T3 present, 24 h): > 50 µM; CC50 at 24 h (AC50 (uM) modified / 1000, Tox21_110001=Tox21_201771, viability, 1 nM T3 present, 24 h): > 90 µM
CC(=O)OCC1=C(C(=O)O)N2C(=O)[C@@H](NC(=O)CSc3ccncc3)[C@H]2SC1 [Cephapirin sodium]	> 50	–
CCCCCCCc1ccc(O)cc1 [4-Heptylphenol]	–	CC50 at 24 h (AC50 (uM) modified / 1000, Tox21_110001=Tox21_301548, viability, 1 nM T3 present, 24 h): > 90 µM
COc1ccc(OC)c(C[C@H](C)N)c1 [(2S)-1-(2,5-Dimethoxyphenyl)propan-2-amine hydrogen chloride (1:1)]	–	CC50 at 24 h (AC50 (uM) modified / 1000, Tox21_110001=Tox21_112851, viability, 1 nM T3 present, 24 h): > 100 µM
CC(=O)c1ccc(OCC(=O)N2CCCCC2)cc1 [4'-Piperidinylcarbonylmethoxyacetophenone]	> 50	–

Structure (SMILES)	CC50 at 24 h (AC50 (uM) modified / 1000) [µM]	also measured
COCC(=O)Nc1c(I)c(C(=O)NCC(O)CO)c(I)c(C(=O)N(C)CC(O)CO)c1I (mixture of isomers) [Iopromide]	> 20	–
Cc1cc(CC(C)CC(C)(C)C)n(O)c(=O)c1 (stereo not shown) [Piroctone olamine]	33	–
COc1ccc(-c2nc3ccc(C4=NNC(=O)CC4C)cc3[nH]2)cc1 (stereo not shown) [Pimobendan hydrochloride]	36.4	–
CCOC(=O)N(C)N=O [N-Nitroso-N-methylurethane]	> 90	–
O=C(NS(=O)(=O)/C=C/c1ccccc1)c1ccc(F)cc1Cl [PharmaGSID_48516]	> 90	–
CCCCCCCCCCCCCCCC[N+](C)(C)C [Hexadecyl trimethyl ammonium chloride]	12.8	–
O=C(O)c1c(Cl)cccc1Cl [2,6-Dichlorobenzoic acid]	> 90	–
CC(C)C(=O)OCCOc1ccccc1 [Phenoxyethyl isobutyrate]	> 90	–
O=C(O)c1ccc[n+]([O-])c1 [Nicotinic acid 1-oxide]	> 50	–
CC/C=C\CCOC(=O)CC [(3Z)-Hex-3-en-1-yl propanoate]	> 90	–
C/C=C(\C)C(=O)OC/C=C(\C)CCC=C(C)C [Geranyl tiglate]	> 90	–
O=Cc1ccc([N+](=O)[O-])cc1 [4-Nitrobenzaldehyde]	> 90	–
CC(=NO)C(C)=NO [Dimethylglyoxime]	> 90	–
CCC(=O)Nc1cccc(N)c1 [N-(3-Aminophenyl)propanamide]	> 90	–
Cc1ccc(-c2ncc(Cl)cc2-c2ccc(S(C)(=O)=O)cc2)cn1 [Etoricoxib]	> 50	–
CC(C)c1ccc2ncccc2c1 [6-(1-Methylethyl)quinoline]	> 90	–
CC(=O)Oc1cccc2c1C(=O)c1c(OC(C)=O)cc(C(=O)O)cc1C2=O [Diacerein]	> 50	–
c1ccc(Nc2ccccc2)cc1 [Diphenylamine]	> 90	–
CN(C)N=Nc1ccccc1 [1-Phenyl-3,3-dimethyltriazene]	> 90	–
CCCCCCCCN[C@@H](C)[C@H](O)c1ccc(SC(C)C)cc1 (racemic) [Suloctdil]	4.84	–
CC(=O)Oc1ccc([N+](=O)[O-])cc1CCl [2-Acetoxy-5-nitrobenzyl chloride]	67	–
C[N+]1(CCC(C(N)=O)(c2ccccc2)c2ccccc2)CCCCC1 [Fenpiverinium bromide]	> 50	–
CCC(C)(C)C1CCC(O)CC1 (stereo not shown) [4-(2-Methylbutan-2-yl)cyclohexanol]	> 90	–
ON(Cc1ccccc1)Cc1ccccc1 [N-Benzyl-N-hydroxy-1-phenylmethanamine]	> 90	–
CCC/C=C/C=C/C(=O)O[C@H]1/C(=C/C(=O)OC)C[C@H]2C[C@H]([C@@H](C)O)OC(=O)C[C@H](O)C[C@@H]3C[C@H](OC(C)=O)C(C)(C)[C@](O)(C[C@@H]4C/C(=C/C(=O)OC)C[C@H](/C=C/C(C)(C)[C@]1(O)O2)O4)O3 [Bryostatin 1]	–	CC50 at 24 h (AC50 (uM) modified / 1000, Tox21_110001=Tox21_112754, viability, 1 nM T3 present, 24 h): 9.94 µM
